Measurements taken from patent US10913727B2, “Modulators of the integrated stress pathway” (Calico Life Sciences LLC, priority 2016, dated 2021).

Test system: HEK293T cells carrying the ATF4 luciferase reporter
Assay: ATF4-Luc assay, in vitro model of Vanishing Cell White Matter Disease (VWMD)
Format: cell-based
Conditions: Homo sapiens, HEK-293T, 1 μg/mL tunicamycin, 7 hours, One Glo luminescence
In short: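 Stable HEK293T line with human ATF4 5′-UTR–firefly luciferase reporter treated with 1 μg/mL tunicamycin plus 200 nM compound for 7 h. Luminescence read; EC50 derived.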

SMILES	EC50
COCc1nc(C(=O)NC23CC(NC(=O)COc4ccc(Cl)c(F)c4)(C2)C3)cs1 [Compound 926, N-{3-[2-(4-chloro-3-fluorophenoxy)acetamido]bicyclo[1.1.1]pentan-1-yl}-2-(methoxymethyl)-1,3-thiazole-4-carboxamide]	50 to 250 nM
COc1cccc(C(=O)NC23CCC(NC(=O)COc4ccc(Cl)c(F)c4)(CC2)C(O)C3)n1 (stereo not drawn) [Compound 923, N-{4-[2-(4-chloro-3-fluorophenoxy)acetamido]-3-hydroxybicyclo[2.2.2]octan-1-yl}-6-methoxypyridine-2-carboxamide]	50 to 250 nM
Cc1cc(C(=O)NC23CCC(NC(=O)COc4ccc(Cl)c(F)c4)(CC2)CC3)on1 [Compound 444, N-{4-[2-(4-chloro-3-fluorophenoxy)acetamido]bicyclo[2.2.2]octan-1-yl}-3-methyl-1,2-oxazole-5-carboxamide]	> 2000 nM
O=C(COc1ccc(Cl)c(F)c1)NC12CC(NC(=O)c3ccc(-c4ccc(Cl)c(F)c4)o3)(C1)C2 [Compound 106, N-{3-[2-(4-chloro-3-fluorophenoxy)acetamido]bicyclo[1.1.1]pentan-1-yl}-5-(4-chloro-3-fluorophenyl)furan-2-carboxamide]	< 50 nM
O=C(COc1ccc(Cl)c(F)c1)NC12CC(NC(=O)c3ccc4oc(=O)ccc4c3)(C1)C2 [Compound 396, N-{3-[2-(4-chloro-3-fluorophenoxy)acetamido]bicyclo[1.1.1]pentan-1-yl}-2-oxo-2H-1-benzopyran-6-carboxamide]	250 to 1000 nM
N#CCc1ccccc1C(=O)NC12CC(NC(=O)COc3ccc(Cl)c(F)c3)(C1)C2 [Compound 206, N-{3-[2-(4-chloro-3-fluorophenoxy)acetamido]bicyclo[1.1.1]pentan-1-yl}-2-(cyanomethyl)benzamide]	250 to 1000 nM
Cc1nn(C)cc1-c1cc(C(=O)NC23CC(NC(=O)COc4ccc(Cl)c(F)c4)(C2)C3)no1 [Compound 865, N-{3-[2-(4-chloro-3-fluorophenoxy)acetamido]bicyclo[1.1.1]pentan-1-yl}-5-(1,3-dimethyl-1H-pyrazol-4-yl)-1,2-oxazole-3-carboxamide]	1000 to 2000 nM
O=C(COc1ccc(Cl)c(F)c1)NC12CCC(NC(=O)c3cn4cc(F)ccc4n3)(CC1)CC2O (stereo not drawn) [Compound 600, N-{4-[2-(4-chloro-3-fluorophenoxy)acetamido]-3-hydroxybicyclo[2.2.2]octan-1-yl}-6-fluoroimidazo[1,2-a]pyridine-2-carboxamide]	250 to 1000 nM
Cc1nc(C(=O)NC23CCC(NC(=O)COc4ccc(Cl)c(Cl)c4)(CC2)[C@@H](O)C3)n[nH]1 [Compound 702, N-{(3S)-4-[2-(3,4-dichlorophenoxy)acetamido]-3-hydroxybicyclo[2.2.2]octan-1-yl}-5-methyl-1H-1,2,4-triazole-3-carboxamide]	< 50 nM
COc1ncnc(OC)c1C(=O)NC12CC(NC(=O)COc3ccc(Cl)c(F)c3)(C1)C2 [Compound 118, N-{3-[2-(4-chloro-3-fluorophenoxy)acetamido]bicyclo[1.1.1]pentan-1-yl}-4,6-dimethoxypyrimidine-5-carboxamide]	> 2000 nM
Cc1ccnc(C(=O)NC23CCC(NC(=O)COc4ccc(Cl)c(F)c4)(CC2)C(O)C3)c1 (stereo not drawn) [Compound 915, N-{4-[2-(4-chloro-3-fluorophenoxy)acetamido]-3-hydroxybicyclo[2.2.2]octan-1-yl}-4-methylpyridine-2-carboxamide]	250 to 1000 nM
CSc1sc(C(=O)NC23CC(NC(=O)COc4ccc(Cl)c(F)c4)(C2)C3)cc1C#N [Compound 897, N-{3-[2-(4-chloro-3-fluorophenoxy)acetamido]bicyclo[1.1.1]pentan-1-yl}-4-cyano-5-(methylsulfanyl)thiophene-2-carboxamide]	> 2000 nM
O=C(COc1ccc(Cl)c(F)c1)NC12CC(Nc3ccc(C(F)(F)F)cn3)(C1)C2 [Compound 103, 2-(4-chloro-3-fluorophenoxy)-N-(3-{[5-(trifluoromethyl)pyridin-2-yl]amino}bicyclo[1.1.1]pentan-1-yl)acetamide]	1000 to 2000 nM
Cc1ccnc(C(=O)NC23CC(NC(=O)COc4ccc(Cl)c(Cl)c4)(C2)C3)c1 [Compound 526, N-{3-[2-(3,4-dichlorophenoxy)acetamido]bicyclo[1.1.1]pentan-1-yl}-4-methylpyridine-2-carboxamide]	250 to 1000 nM
N#CCCc1ccc(C(=O)NC23CCC(NC(=O)COc4ccc(Cl)c(F)c4)(C2)C3)nc1 [Compound 336, N-{4-[2-(4-chloro-3-fluorophenoxy)acetamido]bicyclo[2.1.1]hexan-1-yl}-5-(2-cyanoethyl)pyridine-2-carboxamide]	> 2000 nM
Cc1cc(C(=O)NC23CC(NC(=O)COc4ccc5c(c4)OC(F)(F)O5)(C2)C3)n(C)n1 [Compound 442, N-(3-{2-[(2,2-difluoro-2H-1,3-benzodioxol-5-yl)oxy]acetamido}bicyclo[1.1.1]pentan-1-yl)-1,3-dimethyl-1H-pyrazole-5-carboxamide]	250 to 1000 nM
O=C(COc1ccc2c(c1)OC(F)(F)O2)NC12CC(NC(=O)c3ccc(OC(F)F)nc3)(C1)C2 [Compound 458, N-(3-{2-[(2,2-difluoro-2H-1,3-benzodioxol-5-yl)oxy]acetamido}bicyclo[1.1.1]pentan-1-yl)-6-(difluoromethoxy)pyridine-3-carboxamide]	50 to 250 nM

SMILES	EC50
O=C(COc1ccc(Cl)c(F)c1)NC12CC(Nc3cnc(C(F)(F)F)cn3)(C1)C2 [Compound 102, 2-(4-chloro-3-fluorophenoxy)-N-(3-{[5-(trifluoromethyl)pyrazin-2-yl]amino}bicyclo[1.1.1]pentan-1-yl)acetamide]	1000 to 2000 nM
COCc1ccc(C(=O)NC23CC(NC(=O)COc4ccc(Cl)c(F)c4)(C2)C3)cc1 [Compound 552, N-{3-[2-(4-chloro-3-fluorophenoxy)acetamido]bicyclo[1.1.1]pentan-1-yl}-4-(methoxymethyl)benzamide]	50 to 250 nM
CN(C)c1ccccc1C(=O)NC12CC(NC(=O)COc3ccc(Cl)c(F)c3)(C1)C2 [Compound 532, N-{3-[2-(4-chloro-3-fluorophenoxy)acetamido]bicyclo[1.1.1]pentan-1-yl}-2-(dimethylamino)benzamide]	> 2000 nM
O=C(COc1ccc(Cl)c(F)c1)NC12CC(NC(=O)c3ccccc3Cn3cccn3)(C1)C2 [Compound 890, N-{3-[2-(4-chloro-3-fluorophenoxy)acetamido]bicyclo[1.1.1]pentan-1-yl}-2-[(1H-pyrazol-1-yl)methyl]benzamide]	> 2000 nM
O=C(COc1ccc(Cl)c(F)c1)NC12CCC(NC(=O)c3cnc4ccccc4n3)(CC1)C[C@@H]2O [Compound 667, N-{(3S)-4-[2-(4-chloro-3-fluorophenoxy)acetamido]-3-hydroxybicyclo[2.2.2]octan-1-yl}quinoxaline-2-carboxamide]	< 50 nM
N#Cc1ccc(C(=O)NC23CCC(NC(=O)COc4ccc(Cl)c(F)c4)(CC2)CC3O)nc1 (stereo not drawn) [Compound 170, N-{4-[2-(4-chloro-3-fluorophenoxy)acetamido]-2-hydroxybicyclo[2.2.2]octan-1-yl}-5-cyanopyridine-2-carboxamide]	50 to 250 nM
O=C(COc1ccc(Cl)c(F)c1)NC12CC(NC(=O)c3ccc4ncccc4n3)(C1)C2 [Compound 658, N-{3-[2-(4-chloro-3-fluorophenoxy)acetamido]bicyclo[1.1.1]pentan-1-yl}-1,5-naphthyridine-2-carboxamide]	50 to 250 nM
Cc1cc(C(=O)NC23CC(NC(=O)COc4ccc(Cl)c(Cl)c4)(C2)C3)sn1 [Compound 617, N-{3-[2-(3,4-dichlorophenoxy)acetamido]bicyclo[1.1.1]pentan-1-yl}-3-methyl-1,2-thiazole-5-carboxamide]	< 50 nM
O=C(COc1ccc(Cl)c(F)c1)NC12CC(Nc3cncc(N4CCOCC4)n3)(C1)C2 [Compound 744, 2-(4-chloro-3-fluorophenoxy)-N-(3-{[6-(morpholin-4-yl)pyrazin-2-yl]amino}bicyclo[1.1.1]pentan-1-yl)acetamide]	250 to 1000 nM
O=C(COc1ccc(Cl)c(F)c1)NC12CCC(NC(=O)c3ccc4c(c3)OCO4)(CC1)C(O)C2 (stereo not drawn) [Compound 211, N-{4-[2-(4-chloro-3-fluorophenoxy)acetamido]-2-hydroxybicyclo[2.2.2]octan-1-yl}-2H-1,3-benzodioxole-5-carboxamide]	1000 to 2000 nM
O=C(COc1ccc(Cl)c(F)c1)NC12CC(NC(=O)c3ccc4c(c3)OC(F)(F)O4)(C1)C2 [Compound 234, N-{3-[2-(4-chloro-3-fluorophenoxy)acetamido]bicyclo[1.1.1]pentan-1-yl}-2,2-difluoro-2H-1,3-benzodioxole-5-carboxamide]	< 50 nM
CC(=O)NCc1ccc(C(=O)NC23CC(NC(=O)COc4ccc(Cl)c(F)c4)(C2)C3)o1 [Compound 778, 5-(acetamidomethyl)-N-{3-[2-(4-chloro-3-fluorophenoxy)acetamido]bicyclo[1.1.1]pentan-1-yl}furan-2-carboxamide]	> 2000 nM
O=C(COc1ccc(Cl)c(F)c1)NC12CC(NC(=O)c3cc(C4CC4)on3)(C1)C2 [Compound 256, N-{3-[2-(4-chloro-3-fluorophenoxy)acetamido]bicyclo[1.1.1]pentan-1-yl}-5-cyclopropyl-1,2-oxazole-3-carboxamide]	250 to 1000 nM
CCc1cc(C(=O)NC23CC(NC(=O)COc4ccc(Cl)c(F)c4)(C2)C3)on1 [Compound 323, N-{3-[2-(4-chloro-3-fluorophenoxy)acetamido]bicyclo[1.1.1]pentan-1-yl}-3-ethyl-1,2-oxazole-5-carboxamide]	250 to 1000 nM
Cc1noc(C(=O)NC23CCC(NC(=O)COc4ccc(Cl)c(F)c4)(CC2)[C@@H](O)C3)n1 [Compound 575, N-{(3S)-4-[2-(4-chloro-3-fluorophenoxy)acetamido]-3-hydroxybicyclo[2.2.2]octan-1-yl}-3-methyl-1,2,4-oxadiazole-5-carboxamide]	< 50 nM
O=C(COc1ccc(Cl)c(F)c1)NC12CC(NC(=O)c3cnc(C4CCC(F)(F)CC4)o3)(C1)C2 [Compound 126, N-{3-[2-(4-chloro-3-fluorophenoxy)acetamido]bicyclo[1.1.1]pentan-1-yl}-2-(4,4-difluorocyclohexyl)-1,3-oxazole-5-carboxamide]	50 to 250 nM
